Consider nine molecules from patent US10004701B2, “Methods and compositions for treating infection” (UNIVERSITY OF ROCHESTER, priority 2012, dated 2018).

Holding throughout (assay): AK assay 384-well format, Prestwick library screening
Experiment [1] deals with A. baumannii strain 98-37-09. It is filed as cell-based, Acinetobacter baumannii. To be noted: 50 μM final drug concentration; for fold induction at 50 µM: Acinetobacter baumannii, 983709, 3 h.
Experiment [2] deals with S. aureus strain USA300-0114. It is filed as cell-based, Staphylococcus aureus. To be noted: 50 μM final drug concentration; for fold induction at 50 µM: Staphylococcus aureus, USA300, 3 h.
The next experiment relates to E. coli. It is filed as cell-based, Escherichia coli. To be noted: 50 μM final drug concentration; for fold induction at 50 µM: Escherichia coli, 3 h.
For a further experiment, the system named is E. faecium. Type of experiment: cell-based, Enterococcus faecium. To be noted: 50 μM final drug concentration; for fold induction at 50 µM: Enterococcus faecium, 3 h.
The test system of a further experiment is K. pneumoniae. It is filed as cell-based, Klebsiella pneumoniae. To be noted: 50 μM final drug concentration; for fold induction at 50 µM: Klebsiella pneumoniae, 3 h.
The subject of a further experiment is E. cloacae. Type of experiment: cell-based, Enterobacter cloacae. To be noted: 50 μM final drug concentration; for fold induction at 50 µM: Enterobacter cloacae, 3 h.
In the next experiment the test system is P. aeruginosa. It is filed as cell-based, Pseudomonas aeruginosa. To be noted: 50 μM final drug concentration; for fold induction at 50 µM: Pseudomonas aeruginosa, 3 h.
Where [3] appears, read: 384-well format, cutoff for positive-scoring molecules 3-fold increase.
Where [4] appears, read: planktonic, cutoff for positive-scoring molecules 3-fold increase, read-out: AK-based Prestwick Library Screening Results, A. baumannii (fold increase in extracellular AK activity).
The mark [5] stands for this setting: planktonic, cutoff for positive-scoring molecules 3-fold increase, read-out: AK-based Prestwick Library Screening Results, S. aureus (fold increase in extracellular AK activity).
[6] abbreviates: planktonic, cutoff for positive-scoring molecules 3-fold increase, read-out: AK-based Prestwick Library Screening Results, E. coli (fold increase in extracellular AK activity).
Setting [7] is: planktonic, cutoff for positive-scoring molecules 3-fold increase, read-out: AK-based Prestwick Library Screening Results, E. faecium (fold increase in extracellular AK activity).
Setting [8] is: planktonic, cutoff for positive-scoring molecules 3-fold increase, read-out: AK-based Prestwick Library Screening Results, K. pneumoniae (fold increase in extracellular AK activity).
The mark [9] stands for this setting: planktonic, cutoff for positive-scoring molecules 3-fold increase, read-out: AK-based Prestwick Library Screening Results, E. cloacae (fold increase in extracellular AK activity).
Where [10] appears, read: planktonic, cutoff for positive-scoring molecules 3-fold increase, read-out: AK-based Prestwick Library Screening Results, P. aeruginosa (fold increase in extracellular AK activity).

Structures are written as SMILES. Where a name gives a salt, the structure may show the parent alone. Read-outs that look alike come from different tables or passages of the source.

Turning to `C[C@]12CC[C@H]3[C@@H](CCC4=CC(=O)CC[C@@H]43)[C@@H]1CC[C@@H]2O` [Nandrolone], the fold induction at 50 µM in experiment [1] (planktonic A. baumannii, […], read-out: AK-based Prestwick library screening result, A. baumannii (fold increase in extracellular AK activity)) is 0.8; in experiment [2] (planktonic S. aureus, […], read-out: AK-based Prestwick library screening result, S. aureus (fold increase in extracellular AK activity)) it was 0.7; in the experiment with E. coli (planktonic E. coli, […], read-out: AK-based Prestwick library screening result, E. coli (fold increase in extracellular AK activity)), 0.9; in the experiment with E. faecium (planktonic E. faecium, […], read-out: AK-based Prestwick library screening result, E. faecium (fold increase in extracellular AK activity)) it was 1; in the experiment on K. pneumoniae (planktonic K. pneumoniae, […], read-out: AK-based Prestwick library screening result, K. pneumoniae (fold increase in extracellular AK activity)), 0.7; in the experiment on E. cloacae (planktonic E. cloacae, […], read-out: AK-based Prestwick library screening result, E. cloacae (fold increase in extracellular AK activity)) it was 1. The fold induction at 50 µM in the experiment with P. aeruginosa (planktonic P. aeruginosa, […], read-out: AK-based Prestwick library screening result, P. aeruginosa (fold increase in extracellular AK activity)) was found to be 0.9.
With `CCOC(=O)Nc1ccc2c(c1)N(C(=O)CCN1CCOCC1)c1ccccc1S2` [Moricizine hydrochloride], the fold induction at 50 µM in experiment [1] (cutoff for positive-scoring molecules 3-fold increase, read-out: AK-based Prestwick Library Screening Results, A. baumannii (fold increase in extracellular AK activity)) was 0.6; in experiment [2] (cutoff for positive-scoring molecules 3-fold increase, read-out: AK-based Prestwick Library Screening Results, S. aureus (fold increase in extracellular AK activity)) it was 0.6; with E. coli (cutoff for positive-scoring molecules 3-fold increase, read-out: AK-based Prestwick Library Screening Results, E. coli (fold increase in extracellular AK activity)), 0.6; with E. faecium (cutoff for positive-scoring molecules 3-fold increase, read-out: AK-based Prestwick Library Screening Results, E. faecium (fold increase in extracellular AK activity)), 1; in the experiment on K. pneumoniae (cutoff for positive-scoring molecules 3-fold increase, read-out: AK-based Prestwick Library Screening Results, K. pneumoniae (fold increase in extracellular AK activity)) it was 0.6; with E. cloacae (cutoff for positive-scoring molecules 3-fold increase, read-out: AK-based Prestwick Library Screening Results, E. cloacae (fold increase in extracellular AK activity)), 0.7. In the experiment with P. aeruginosa (cutoff for positive-scoring molecules 3-fold increase, read-out: AK-based Prestwick Library Screening Results, P. aeruginosa (fold increase in extracellular AK activity)), the fold induction at 50 µM worked out at 0.6.
`C[C@]12CCC(=O)C=C1CC[C@@H]1[C@@H]2C(=O)C[C@@]2(C)[C@H]1CC[C@]2(O)C(=O)CO` [Cortisone]: in experiment [1] (setting [3]), the “AK-based Prestwick Library Screening Results, A. baumannii (increase in extracellular AK activity)” value amounted to 1.0. For the same molecule, in experiment [2] (setting [3]), the “AK-based Prestwick Library Screening Results, S. aureus (increase in extracellular AK activity)” value came out at 0.8. Also, the “AK-based Prestwick Library Screening Results, E. coli (increase in extracellular AK activity)” value in the experiment with E. coli (setting [3]) is listed as 0.9. Moreover, the “AK-based Prestwick Library Screening Results, E. faecium (increase in extracellular AK activity)” value with E. faecium (setting [3]) is listed as 0.9. Further, the “AK-based Prestwick Library Screening Results, K. pneumoniae (increase in extracellular AK activity)” value in the experiment on K. pneumoniae (setting [3]) was found to be 0.8. Further, the “AK-based Prestwick Library Screening Results, E. cloacae (increase in extracellular AK activity)” value in the experiment with E. cloacae (setting [3]) was 1.2. Also, the “AK-based Prestwick Library Screening Results, P. aeruginosa (increase in extracellular AK activity)” value in the experiment with P. aeruginosa (setting [3]) amounted to 1.0.
With `O=C(O)CCNC(=O)c1ccc(/N=N/c2ccc(O)c(C(=O)O)c2)cc1` [Balsalazide Sodium], the fold induction at 50 µM in experiment [1] (setting [4]) came out at 0.5; in experiment [2] (setting [5]), 0.4; with E. coli (setting [6]), 0.5; with E. faecium (setting [7]), 0.9; in the experiment on K. pneumoniae (setting [8]), 0.7; with E. cloacae (setting [9]) it was 0.4. Besides, the fold induction at 50 µM in the experiment on P. aeruginosa (setting [10]) is 0.5.
In the case of `Cc1c(Nc2ncccc2C(=O)O)cccc1C(F)(F)F` [Flunixin meglumine], the fold induction at 50 µM stood at 0.5 in experiment [1] (planktonic, […], read-out: AK-based Prestwick Library Screening Results, A. baumannii (fold increase in extracellular AK activity)); 0.5 in experiment [2] (planktonic, […], read-out: AK-based Prestwick Library Screening Results, S. aureus (fold increase in extracellular AK activity)); 0.6 with E. coli (planktonic, […], read-out: AK-based Prestwick Library Screening Results, E. coli (fold increase in extracellular AK activity)); 0.6 with E. faecium (planktonic, […], read-out: AK-based Prestwick Library Screening Results, E. faecium (fold increase in extracellular AK activity)); 0.5 in the experiment on K. pneumoniae (planktonic, […], read-out: AK-based Prestwick Library Screening Results, K. pneumoniae (fold increase in extracellular AK activity)); 1 in the experiment with E. cloacae (planktonic, […], read-out: AK-based Prestwick Library Screening Results, E. cloacae (fold increase in extracellular AK activity)). Also, the fold induction at 50 µM in the experiment on P. aeruginosa (planktonic, […], read-out: AK-based Prestwick Library Screening Results, P. aeruginosa (fold increase in extracellular AK activity)) was found to be 0.6.
For `COc1ccccc1OCC(O)CO` (stereo not drawn) [Guaifenesin], the fold induction at 50 µM worked out at 1 in experiment [1] ([…], read-out: AK-based Prestwick Library Screening Results, A. baumannii (fold increase in extracellular AK activity)); 1.2 in experiment [2] ([…], read-out: AK-based Prestwick Library Screening Results, S. aureus (fold increase in extracellular AK activity)); 1.1 in the experiment with E. coli ([…], read-out: AK-based Prestwick Library Screening Results, E. coli (fold increase in extracellular AK activity)); 1 with E. faecium ([…], read-out: AK-based Prestwick Library Screening Results, E. faecium (fold increase in extracellular AK activity)); 0.8 with K. pneumoniae ([…], read-out: AK-based Prestwick Library Screening Results, K. pneumoniae (fold increase in extracellular AK activity)); 1.6 in the experiment on E. cloacae ([…], read-out: AK-based Prestwick Library Screening Results, E. cloacae (fold increase in extracellular AK activity)). Also, in the experiment on P. aeruginosa ([…], read-out: AK-based Prestwick Library Screening Results, P. aeruginosa (fold increase in extracellular AK activity)), the fold induction at 50 µM is 1.1.
As for `CCCCC1(COC(=O)CCC(=O)O)C(=O)N(c2ccccc2)N(c2ccccc2)C1=O` [Suxibuzone], the fold induction at 50 µM was found to be 0.8 in experiment [1] (setting [4]); 0.6 in experiment [2] (setting [5]); 0.6 in the experiment with E. coli (setting [6]); 0.9 in the experiment with E. faecium (setting [7]); 0.6 in the experiment on K. pneumoniae (setting [8]); 0.8 in the experiment on E. cloacae (setting [9]). Moreover, the fold induction at 50 µM with P. aeruginosa (setting [10]) stood at 0.6.
`O=C(NCCO[N+](=O)[O-])c1cccnc1` [Nicorandil]: the fold induction at 50 µM in experiment [1] (384-well format, cutoff for positive-scoring molecules 3-fold increase, read-out: AK-based Prestwick Library Screening Results, A. baumannii (increase in extracellular AK activity)) stood at 0.8; in experiment [2] (384-well format, cutoff for positive-scoring molecules 3-fold increase, read-out: AK-based Prestwick Library Screening Results, S. aureus (increase in extracellular AK activity)), 0.6; with E. coli (384-well format, cutoff for positive-scoring molecules 3-fold increase, read-out: AK-based Prestwick Library Screening Results, E. coli (increase in extracellular AK activity)) it was 0.9; in the experiment on E. faecium (384-well format, cutoff for positive-scoring molecules 3-fold increase, read-out: AK-based Prestwick Library Screening Results, E. faecium (increase in extracellular AK activity)), 0.9; in the experiment with K. pneumoniae (384-well format, cutoff for positive-scoring molecules 3-fold increase, read-out: AK-based Prestwick Library Screening Results, K. pneumoniae (increase in extracellular AK activity)) it was 0.8; with E. cloacae (384-well format, cutoff for positive-scoring molecules 3-fold increase, read-out: AK-based Prestwick Library Screening Results, E. cloacae (increase in extracellular AK activity)) it was 0.9. The fold induction at 50 µM with P. aeruginosa (384-well format, cutoff for positive-scoring molecules 3-fold increase, read-out: AK-based Prestwick Library Screening Results, P. aeruginosa (increase in extracellular AK activity)) stood at 0.7.
As for `Nc1ccc(/N=N/c2ccccc2)c(N)n1` [Phenazopyridine hydrochloride], the fold induction at 50 µM worked out at 0.1 in experiment [1] (setting [4]); 0.3 in experiment [2] (setting [5]); 0.1 in the experiment on E. coli (setting [6]); 0.1 with E. faecium (setting [7]); 0.1 in the experiment with K. pneumoniae (setting [8]); 1.4 in the experiment with E. cloacae (setting [9]). Also, the fold induction at 50 µM with P. aeruginosa (setting [10]) came out at 0.1.
